pIC50: −log10 of the molar value.
What was measured:
xanthine oxidase = biological target: T1, xanthine oxidase (Bos taurus, UniProt P80457); assay: In vitro determination of xanthine oxidase (XOD) inhibition; type: biochemical; details: xanthine oxidase from butter milk, xanthine substrate, pH 7.4, 37° C.
T1 construct: purchased Sigma Chemical Company; host or cells: butter milk
Experimental: (1) Preparation of test compounds:
Test compounds (compounds of Ex. No. listed in Table 1) were dissolved in dimethylsulfoxide and diluted with a 50 mM phosphate buffer to prepare aqueous solutions respectively having predetermined concentrations.
The inhibition rate was determined by the following equation: [formula]
The inhibition (%) was determined on each test compound prepared according to (1), and the IC50 value on the xanthine oxidase (XOD) inhibition was calculated from the value of inhibition.

interleukin 1 production = assay: Interleukin 1 production inhibitory activity (LPS, abdominal exuded macrophage, ELISA); type: cell-based, BALB/c mouse; details: 10^-6 M, 1 μg/ml LPS, 24 hours, mouse macrophage
Experimental: 1 ml of a 5% oyster glycogen solution was intra-abdominally administered to a BALB/c mouse (male, 8 weeks in age), and 4 days after the administration, the infiltrated abdominal exuded cells were adhered to a plastic dish for 2 hours, and 1 μg/ml of LPS was allowed to act on macrophage (1×10^6 cells). Interleukin 1 extricated on the supernatant in 24 hours was measured by an ELISA technique. The test compound (compounds of Ex. No. described in Table 3) was prepared so as to have a concentration of 10^-6 M, and the interleukin 1 production inhibitory activity was, expressed in terms of the percentage inhibition based on the amount of production of the control.

serum uric acid = assay: Determination of oral administration: lowering of serum uric acid in mice; type: in vivo, ICR male mice; details: Mus musculus; ICR male mice, oral, 1 mg/kg, 2 hours after administration, serum; read-out: Activity of lowering uric acid
Experimental: Test compounds suspended in a 5% gum arabic solution was forcibly administered by oral administration (compounds of Ex. No. of Table 2, dose: 1 mg/kg) to ICR male mice (age: about 7 weeks) (one group: 6 mice) by means of an oral probe. 2 hours after the administration, thoracotomy was conducted under etherization to collect blood from the heart, and serum was removed by a conventional process. The serum uric acid was measured by a biochemical automatic analyzer (Flexigem; Electro-Nucleonics, Inc.) by using a uric acid measurement kit (UA reagent; International Reagent) to determine the percentage of the lowering of uric acid. [formula]

T1 sequence (P80457 whole entry): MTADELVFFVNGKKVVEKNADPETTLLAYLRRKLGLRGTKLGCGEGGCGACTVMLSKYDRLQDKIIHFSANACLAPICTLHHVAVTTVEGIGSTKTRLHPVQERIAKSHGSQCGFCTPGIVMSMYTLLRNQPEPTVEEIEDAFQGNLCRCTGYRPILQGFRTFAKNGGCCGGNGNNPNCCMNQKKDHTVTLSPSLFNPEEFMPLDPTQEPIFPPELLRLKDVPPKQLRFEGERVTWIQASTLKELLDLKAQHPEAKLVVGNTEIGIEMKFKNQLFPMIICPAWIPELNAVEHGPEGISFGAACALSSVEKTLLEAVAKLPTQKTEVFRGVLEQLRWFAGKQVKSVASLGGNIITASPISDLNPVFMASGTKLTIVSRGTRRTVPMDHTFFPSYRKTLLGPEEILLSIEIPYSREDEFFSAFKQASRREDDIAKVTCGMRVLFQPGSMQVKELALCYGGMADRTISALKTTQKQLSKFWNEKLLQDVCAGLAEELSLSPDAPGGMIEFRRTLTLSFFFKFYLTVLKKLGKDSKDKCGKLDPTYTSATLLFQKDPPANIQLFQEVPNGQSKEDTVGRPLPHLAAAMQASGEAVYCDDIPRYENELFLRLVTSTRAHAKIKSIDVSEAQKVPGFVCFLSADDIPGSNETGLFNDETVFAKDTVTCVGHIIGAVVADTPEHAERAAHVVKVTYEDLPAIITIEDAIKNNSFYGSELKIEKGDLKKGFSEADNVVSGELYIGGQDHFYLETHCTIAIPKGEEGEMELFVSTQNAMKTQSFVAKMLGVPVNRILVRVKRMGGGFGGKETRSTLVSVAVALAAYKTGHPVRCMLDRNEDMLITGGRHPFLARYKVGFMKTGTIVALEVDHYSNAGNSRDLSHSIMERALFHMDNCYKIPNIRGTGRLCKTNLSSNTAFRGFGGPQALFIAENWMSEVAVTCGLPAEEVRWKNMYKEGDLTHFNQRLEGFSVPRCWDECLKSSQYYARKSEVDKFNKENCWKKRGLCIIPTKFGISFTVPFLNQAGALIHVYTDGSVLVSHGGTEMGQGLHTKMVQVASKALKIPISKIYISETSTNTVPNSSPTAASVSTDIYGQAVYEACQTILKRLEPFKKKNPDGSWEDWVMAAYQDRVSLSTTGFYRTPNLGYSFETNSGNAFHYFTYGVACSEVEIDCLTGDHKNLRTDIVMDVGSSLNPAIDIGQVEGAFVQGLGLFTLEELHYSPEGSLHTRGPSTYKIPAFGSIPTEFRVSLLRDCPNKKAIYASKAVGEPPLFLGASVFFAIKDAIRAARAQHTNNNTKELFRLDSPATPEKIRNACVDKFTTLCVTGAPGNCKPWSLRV

Compound | pIC50 (xanthine oxidase) | inhibition at 1 µM (interleukin 1 production) | inhibition in vivo at 1 mg/kg (serum uric acid)
Cc1nc(-c2ccc(OCC3CCCCC3)cc2)sc1C(=O)O [Example 7, 2-(4-Cyclohexylmethyloxyphenyl)-4-methyl-5-thiazolecarboxylic acid] | 7.34 | 39% | 
Cc1nc(-c2ccc(Sc3ccc(Cl)cc3)c(Br)c2)sc1C(=O)O [Example 65, 2-(3-Bromo-4-(4-chlorophenylthio)phenyl)-4-methyl-5-thiazolecarboxylic acid] | 8.80 |  | 42%
Cc1nc(-c2ccc(OCC(C)C)c(Cl)c2)sc1C(=O)O [Example 51, 2-(3-Chloro-4-isobutyloxyphenyl)-4-methyl-5-thiazolecarboxylic acid] | 8.68 |  | 78%
CCOc1ccc(-c2nc(C)c(C(=O)O)s2)cc1[N+](=O)[O-] [Example 33, 2-(4-Ethoxy-3-nitrophenyl)-4-methyl-5-thiazolecarboxylic acid] | 9.44 |  | 71%
Cc1nc(-c2ccc(SC(C)C)c([N+](=O)[O-])c2)sc1C(=O)O [Example 35, 2-(4-isopropylthio-3-nitrophenyl)-4-methyl-5-thiazolecarboxylic acid] | 9.52 |  | 57%
Cc1nc(-c2ccc(OCCN3CCOCC3)c(Cl)c2)sc1C(=O)O [Example 56, 2-(3-Chloro-4-(2-morpholinoethyloxy)phenyl)-4-methyl-5-thiazolecarboxylic acid] | 8.82 |  | 50%
Cc1nc(-c2ccc(OCC(C)(C)C)c(Cl)c2)sc1C(=O)O [Example 54, 2-(3-Chloro-4-neopentyloxyphenYl)-4-methyl-5-thiazolecarboxylic acid] | 8.54 |  | 12%
CCOCCOc1ccc(-c2nc(C)c(C(=O)O)s2)cc1Cl [Example 55, 2-(3-Chloro-4-(2-ethoxyethyloxy)phenyl)-4-methyl-5-thiazolecarboxylic acid] | 8.15 |  | 45%
Cc1nc(-c2ccc(N3CCCCC3)c(C#N)c2)sc1C(=O)O [Example 82, 2-(3-Cyano-4-piperidinophenyl)-4-methyl-5-thiazolecarboxylic acid] | 8.57 |  | 93%
Cc1nc(-c2ccc(OCCN3CCCCC3)c(Cl)c2)sc1C(=O)O [Example 57, 2-(3-Chloro-4-(2-piperidinoethyloxy)phenyl)-4-methyl-5-thiazolecarboxylic acid] | 8.92 |  | 15%
CCC(CC)COc1ccc(-c2nc(C)c(C(=O)O)s2)cc1[N+](=O)[O-] [Example 42, 2-(4-(2-Ethylbutyloxy)-3-nitrophenyl)-4-methyl-5-thiazolecarboxylic acid] | 8.70 |  | 75%
Cc1nc(-c2ccc(OCC3CCCCC3)c([N+](=O)[O-])c2)sc1C(=O)O [Example 32, 2-(4-Cyclohexylmethyloxy-3-nitrophenyl)-4-methyl-5-thiazolecarboxylic acid] | 9.74 |  | 48%
Cc1nc(-c2ccc(OCC(C)C)c(C(F)(F)F)c2)sc1C(=O)O [Example 83, 2-(4-isobutyloxy-3-trifluomethylphenyl)-4-methyl-5-thiazolecarboxylic acid] | 8.96 |  | 86%

Continued by rising pIC50 (xanthine oxidase), values first:

pIC50 (xanthine oxidase) | Compound | inhibition at 1 µM (interleukin 1 production) | inhibition in vivo at 1 mg/kg (serum uric acid)
6.51 | Cc1nc(-c2ccc(C(F)(F)F)cc2)sc1C(=O)O [Example 6, 4-Methyl-2-(4-trifluoromethylphenyl)-5-thiazolecarboxylic acid] | 38% | 
6.82 | Cc1nc(-c2cccc(C(=O)Nc3ccc(Cl)cc3)c2)sc1C(=O)O [Example 15, 2-(3-(4-chlorophenylcarbamoyl)phenyl)-4-methyl-5-thiazolecarboxylic acid] | 38% | 
7.11 | Cc1nc(-c2ccc(OCC(=O)O)cc2)sc1C(=O)O [Example 11, 2-(4-Carboxymethyloxyphenyl)-4-methyl-5-thiazolecarboxylic acid] | 23% | 
7.17 | Cc1nc(-c2cccc(OC(C)C)c2)sc1C(=O)O [Example 1, 2-(3-isopropoxyphenyl)-4-methyl-5-thiazolecarboxylic acid] | 83% | 
7.35 | CC(C)Oc1ccc(-c2nc(O)c(C(=O)O)s2)cc1 [Example 22, 4-Hydroxy-2-(4-isopropoxyphenyl)-5-thiazolecarboxylic acid] | 45% | 
7.37 | Cc1nc(-c2ccc(N(C)C)cc2)sc1C(=O)O [Example 18, 2-(4-(N,N-dimethylamino)phenyl)-4-methyl-5-thiazolecarboxylic acid] |  | 22%
7.59 | Cc1nc(-c2cc(Cl)c(O)c(Cl)c2)sc1C(=O)O [Example 28, 2-(3,5-Dichloro-4-hydroxyphenyl)-4-methyl-5-thiazolecarboxylic acid] | 52% | 
7.92 | Cc1nc(-c2ccc(OCCCCC(=O)O)cc2)sc1C(=O)O [Example 12, 2-(4-(4-Carboxybutyloxy)phenyl)-4-methyl-5-thiazolecarboxylic acid] | 42% | 
8.00 | Cc1nc(-c2cc(Cl)cc(Cl)c2)sc1C(=O)O [Example 27, 2-(3,5-Dichlorophenyl)-4-methyl-5-thiazolecarboxylic acid] | 43% | 
8.49 | Cc1nc(-c2ccc(C(=O)O)cc2)sc1C(=O)O [Example 14, 2-(4-Carboxyphenyl)-4-methyl-5-thiazolecarboxylic acid] | 35% | 
8.54 | Cc1nc(-c2ccc(OCC(C)(C)C)c(C(F)(F)F)c2)sc1C(=O)O [Example 84, 4-Methyl-2-(4-neopentyloxy-3-trifluoromethylphenyl)-5-thiazolecarboxylic acid] |  | 80%
8.77 | Cc1nc(-c2ccc(N3CCOCC3)c(C#N)c2)sc1C(=O)O [Example 81, 2-(3-Cyano-4-morpholinophenyl)-4-methyl-5-thiazolecarboxylic acid] |  | 91%
8.82 | Cc1nc(-c2cc(Cl)c(OCC(C)C)c(Cl)c2)sc1C(=O)O [Example 69, 2-(3,5-Dichloro-4-isobutyloxyphenyl)-4-methyl-5-thiazolecarboxylic acid] |  | 55%
9.03 | Cc1nc(-c2ccc(OCC(C)C)c(Br)c2)sc1C(=O)O [Example 63, 2-(3-bromo-4-isobutyloxyphenyl)-4-methyl-5-thiazolecarboxylic acid] |  | 35%
9.19 | Cc1nc(-c2ccc([S+]([O-])c3ccc(Cl)cc3)c(Cl)c2)sc1C(=O)O (stereo not drawn) [Example 62, 2-(3-chloro-4-(4'-chlorophenylsulfinyl)phenyl)-4-methyl-5thiazolecarboxylic acid] |  | 35%
9.24 | Cc1nc(-c2ccc(OC(C)C)c([N+](=O)[O-])c2)sc1C(=O)O [Example 31, 2-(4-isopropoxy-3-nitrophenyl)-4-methyl-5-thiazolecarboxylic acid] |  | 90%
9.29 | Cc1nc(-c2ccc(OCC(C)C)c(C=O)c2)sc1C(=O)O [Example 86, 2-(3-formyl-4-isobutyloxyphenyl)-4-methyl-5-thiazolecarboxylic acid] |  | 72%

From patent US5614520A, “2-arylthiazole derivatives and pharmaceutical composition thereof” (priority 1990, dated 1997)
